Reference: US11136297B2, “Compositions and methods for treating cancer” (THE REGENTS OF THE UNIVERSITY OF CALIFORNIA, priority 2016, dated 2021)
“Also recorded” adds a separate entry of the source.

Key:
[1] = biological target: T1, full-length wild-type K-Ras (Homo sapiens, UniProt P01116); assay: Disulfide fragment labeling of full-length wild-type K-Ras (Cys 72 selectivity); assay type: binding; conditions: wild-type K-Ras contains 4 native cysteine residues
T1 construct: His6; made in house; host or cells: Escherichia coli BL21(DE3)

H-Ras(M72C) GppNHp [2] = biological target: T2, H-Ras(M72C) GppNHp (Homo sapiens, UniProt P01112, M72C); assay: βME50 and percent labeling of tethering fragments, GppNHp state; assay type: binding; design: Labeling studies were conducted using the 1-166 H-Ras(M72C) construct containing all endogenous cysteines; His6; made in house; host or cells: Escherichia coli BL21(DE3)
Description: FIG. 32. […] Percent labeling against H-Ras(M72C) GDP and GppNHp at the screening βME concentration (1 mM) are graphed.
A tethering library of 960 disulfides were screened against 1-169 K-Ras(M72C) GDP using intact protein mass spectrometry to monitor percent modification (See Methods, and FIG. 37). […] To better prioritize tethering fragments, a βME50 value (the concentration of βME needed to reduce disulfide fragment modification to 50%) was determined for each compound. A higher βME50 value corresponds to a better fragment as it can bind with increasing concentrations of competitive thiol (Erlanson et al., 2004; Yang et al., 2009).

H-Ras(M72C) GppNHp [3] = biological target: T2, H-Ras(M72C) GppNHp; assay: EDTA catalyzed exchange and subsequent pull-down by Raf-1-RBD (nucleotide preference); assay type: biochemical; design: and H-Ras (residues 1-166) were transformed into Escherichia coli; His6; made in house; host or cells: Escherichia coli BL21(DE3); conditions: EDTA catalyzed exchange, then pull-down by Raf-1-RBD
Description: FIGS. 29A-29D. […] FIG. 29D: Reconstruction of Ras cycle is achieved by inducing nucleotide exchange of 100 nM Ras by various concentrations of SOS^cat for either 1 or 2 hours and subsequent pull-down by Raf-1-RBD.
FIGS. 33A-33D. […] In FIG. 33B) through FIG. 33D), normalized pull-down signals are shown below the blot. S. E. M for each signal, number of replicates, and […] for each comparative Standard T-Test are summarized herein (see Tables 33B, 33C, and 33D). […] Comparative statistics were done for normalized pull-down signals between protein constructs of the same condition (i.e. in FIG. 33B) and FIG. 33C), column 1 for unlabeled and 1 for labeled protein, 2 for unlabeled and 2 for labeled, and so on were statistically compared, and in FIG. 33D) only the +SOS^cat and +GppNHp lanes were compared across protein constructs). FIG. 33A) Cartoon representation of pull down protocol. […] Reported values are quantified pull-down signals normalized to input. FIG. 33B) Cartoon representation of pull down protocol. […] FIG. 33C) Cartoon representation of pull down protocol. […] FIG. 33D) Cartoon representation of pull down protocol. Ras activation is achieved by catalyzing nucleotide exchange by SOS^cat and indirectly reading out activated Ras by subsequent pull down by Raf-1-RBD.

T1 sequence (P01116 1-188 isoform P01116-2): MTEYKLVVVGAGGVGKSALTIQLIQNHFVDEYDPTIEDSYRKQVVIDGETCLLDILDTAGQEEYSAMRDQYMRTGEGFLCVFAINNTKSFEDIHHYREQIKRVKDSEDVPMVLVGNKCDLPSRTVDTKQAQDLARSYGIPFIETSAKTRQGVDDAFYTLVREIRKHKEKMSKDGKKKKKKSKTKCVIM

Structure (SMILES): COc1ccc(-n2ncc(C(=O)NCCCSSCCN(C)C)c2C(F)(F)F)cc1 [Compound 2C07, N-(3-((2-(dimethylamino)ethyl)disulfanyl)propyl)-1-(4-methoxyphenyl)-5-(trifluoromethyl)-1H-pyrazole-4-carboxamide]
- modification of full-length wild-type K-Ras [1]: did not modify
- βME50 (H-Ras(M72C) GppNHp [2]; H-Ras(M72C) GppNHp, βME concentration that reduces fragment modification to 50%): 1.10 mM
- labeling of H-Ras(M72C) GppNHp (H-Ras(M72C) GppNHp [2]; disulfide tethering at Cys 72): readily modifies
- nucleotide preference (H-Ras(M72C) GppNHp [3]): alters intrinsic Ras affinity for nucleotide towards GDP; also recorded: alters Ras nucleotide preference
